Experimental data from patent US20250064773A1, “TARGETING ERO1 ALPHA WITH AURONE DERIVATIVES” (West Virginia University Board of Governors on behalf of …, priority 2021, published 2025).

What was measured:
[1] = test system: PC-9 ERO1α knockout clones; assay: Soft agar clonogenic assay, PC-9 ERO1α knockout clones; format: cell-based; conditions: 14 days, 3.75-15 μM
Experimental: We utilized an MTT assay to determine the potency of the compounds for inhibiting cell growth. […] We next asked whether T151742 induced inhibition of cell growth was dependent on ERO1α expression. As shown in FIG. 6C two ERO1α deleted clones in the PC-9 cell line were isolated. Using an MTT assay to determine overall cellar viability, a non-targeted control (scramble), and both ERO1α knockout clones was subjected to treatment with T151742 for 72 hours (See FIG. 6D). […] Though only slight differences were observed between T151742 and EN-460 we tested the effects of these compounds in a clonogenic assay which is a better test for inhibition of self-renewal.
FIG. 7A and FIG. 7B show 1000 cells/well were plated in a 12-well plate in triplicate with either 0.5% DMSO, T151742, or EN-460 and allowed to form colonies for 14 days. Colonies were subsequently stained with 0.01% Crystal Violet, imaged, and quantified using ImageJ. […] Colonies were stained with 0.01% Crystal Violet, imaged, and quantified using ImageJ.
Cell Lines: PC-9 cell line used was obtained from Sigma Aldrich and grown in RPMI 1640 medium with 10% fetal bovine serum and 1% penicillin/streptomycin. […] Plate was then read on the BioTek Cytation 5 at 530/590 nm. […] Plate was then read at 570 nm. […] Images were then quantified using ImageJ. […]

purified human ERO1α = biological target: T1, purified human ERO1α (Homo sapiens, UniProt Q96HE7, C104A/C131A/C166A); assay: Recombinant ERO1α enzyme assay (Amplex Red); format: biochemical; conditions: ratio of enzyme IC50 values
T1 construct: made in house
T1 sequence (Q96HE7 22-468 C104A/C131A/C166A): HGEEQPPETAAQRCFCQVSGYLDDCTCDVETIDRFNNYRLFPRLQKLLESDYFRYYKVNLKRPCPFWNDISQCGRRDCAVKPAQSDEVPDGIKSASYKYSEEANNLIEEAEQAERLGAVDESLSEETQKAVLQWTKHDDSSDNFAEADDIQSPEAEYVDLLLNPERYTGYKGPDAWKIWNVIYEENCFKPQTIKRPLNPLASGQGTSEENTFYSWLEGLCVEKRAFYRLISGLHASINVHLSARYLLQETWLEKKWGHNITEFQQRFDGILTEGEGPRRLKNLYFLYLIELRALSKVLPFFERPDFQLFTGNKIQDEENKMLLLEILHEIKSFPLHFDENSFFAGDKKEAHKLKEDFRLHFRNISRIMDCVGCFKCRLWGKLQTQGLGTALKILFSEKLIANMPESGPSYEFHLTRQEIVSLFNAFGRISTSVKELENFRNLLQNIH
Experimental: Based on previous work which established an aurone chemical class of compounds as FAD containing enzyme inhibitors^37, we evaluated sulfuretin analogs for ERO1α enzyme inhibition.
Quantification of enzymatic activity of ERO1α was performed using the Amplex Red as previously described^6.

CN(C)c1ccc(/C=C2\Oc3cc(O)ccc3C2=O)cc1 [Compound T151742]
sensitivity of ERO1α knockout clones in clonogenic assay [1]: completely resistant
fold more potent compared to EN-460 (purified human ERO1α): approximately 2 fold
